How the values were obtained:
silverleaf whiteflies [1] = experiment: Test Example 1: spray on cabbage seedlings infested with silverleaf whiteflies; type: in vivo; details: 50 ppm; adults and larvae on cabbage seedling, 8 days after spray
Protocol: (§1) Cabbage seedlings planted in 3 ounces plastic cup were placed in a net cage containing many living silverleaf whiteflies for 24 hours, so that many silverleaf whiteflies became parasitic on the cabbage seedlings. A designated amount of each of acetamiprid on the market (commercial name, Mospilan water-soluble powder: produced by Nippon Soda), pyriproxyfen on the market (commercial name, Lano emulsifiable concentrate: produced by Sumitomo Chemical) and a mixture of acetamiprid and pyriproxyfen on the market were diluted with water, and then sprayed over the cabbage seedlings with spray gun. The number of silverleaf whiteflies (i.e., the total number of adults and larvae) surviving on the cabbage seedlings was examined just before and after 8 days from the treatment.

silverleaf whiteflies [2] = experiment: Test Example 2: spray on cabbage seedlings infested with silverleaf whiteflies; type: in vivo; details: 8 days after spray
Protocol: as §1

| Compound | Number of surviving insects/pot after 8 days (silverleaf whiteflies [1]) [insects/pot] | Number of surviving insects/pot after 8 days (silverleaf whiteflies [2]; 5 ppm) [insects/pot] | Number of surviving insects/pot after 8 days (silverleaf whiteflies [2]; 10 ppm) [insects/pot] | Number of surviving insects/pot after 8 days (silverleaf whiteflies [2]; 50 ppm) [insects/pot] |
| --- | --- | --- | --- | --- |
| C/C(=N\C#N)N(C)Cc1ccc(Cl)nc1 [acetamiprid, (E)-N^1-[(6-chloro-3-pyridyl)methyl]-N^2-cyano-N^1-methylacetamidine] | 69 | 41 | 16 | 24 |
| CC(COc1ccc(Oc2ccccc2)cc1)Oc1ccccn1 (centres unmarked) [pyriproxyfen, 4-phenoxyphenyl 2-(2-pyridyloxy)propyl ether] | 21 | 41 | 114 | 69 |

— patent publication US6387933B1, “Insecticidal compositions and insecticidal methods” (Sumitomo Chemical Company, Limited, priority 2001, dated 2002)
